Test results published in ChEMBL document CHEMBL1938333, “Novel, potent and orally bioavailable indolizidinone-derived inhibitors of the hepatitis C virus NS3 protease” (Bioorg Med Chem Lett, 2012).

Columns and labels:
Hepatitis C virus [1] = test: Inhibition of HCV1b NS3/4A protease by FRET assay; design: species or system Hepatitis C virus subtype 1b
Hepatitis C virus [2] = test: Antiviral activity against HCV1b infected in human 1b-Rluc cells by replicon assay; assay type: functional, organism-based, Hepacivirus hominis; details: genotype 1b
[3] = Oral bioavailability in Sprague-Dawley rat at 10 mg/kg; assay type: ADME, organism-based; details: in vivo
[4] = Mean residence time in Sprague-Dawley rat at 1 mg/kg, iv; assay type: ADME, organism-based; design: dose 1 mg/kg, route intravenous; details: in vivo
[5] = Clearance in Sprague-Dawley rat at 1 mg/kg, iv; assay type: ADME, organism-based; design: dose 1 mg/kg, route intravenous; details: in vivo
[6] = Lipophilicity, log D of the compound; assay type: physicochemical; details: octanol/water

IC50 (Hepatitis C virus [1]) | EC50 (Hepatitis C virus [2]) | bioavailability [3] | MRT [4] | clearance [5] | logD [6] | Structure (SMILES)
2.6 nM |  |  |  |  |  | C=C[C@@H]1C[C@]1(NC(=O)[C@@H]1C[C@@H](Oc2cc(-c3csc(NC(C)C)n3)nc3c(Cl)c(OC)ccc23)CN1C(=O)[C@@H](NC(=O)OC1CCCC1)C(C)(C)C)C(=O)O
3 nM | 213 nM | 44% | 52.8 min | 14.8 mL/min/kg | 4.5 | C=C[C@@H]1C[C@]1(NC(=O)[C@@H]1C[C@@H](Oc2cc(-c3nc(C(C)C)cs3)nc3c(C)c(OC)ccc23)[C@H]2CC[C@H](C(C)C)C(=O)N21)C(=O)NS(=O)(=O)C1CC1
47 nM |  |  |  |  |  | C=C[C@@H]1C[C@]1(NC(=O)[C@@H]1C[C@@H](Oc2cc(-c3nc(C(C)C)cs3)nc3c(C)c(OC)ccc23)[C@H]2CCCC(=O)N21)C(=O)NS(=O)(=O)C1CC1
2 nM | 818 nM |  |  |  |  | C=C[C@@H]1C[C@]1(NC(=O)[C@@H]1C[C@@H](Oc2cc(OCC)nc3c(C)c(OC)ccc23)[C@H]2CC[C@H](C(C)C)C(=O)N21)C(=O)NS(=O)(=O)C1CC1
2 nM | 76 nM |  |  |  | 3.85 | C=C[C@@H]1C[C@]1(NC(=O)[C@@H]1C[C@@H](Oc2cc(-c3nc(C(C)C)cs3)nc3c(Cl)c(OC)ccc23)[C@H]2CC[C@H](C(C)C)C(=O)N21)C(=O)NS(=O)(=O)C1CC1
1 nM | 75 nM | 21% | 75.6 min | 11.2 mL/min/kg | 3.54 | C=C[C@@H]1C[C@]1(NC(=O)[C@@H]1C[C@@H](Oc2cc(-c3nc(C(C)C)cs3)nc3c(Cl)c(OCCOC)ccc23)[C@H]2CC[C@H](C(C)C)C(=O)N21)C(=O)NS(=O)(=O)C1CC1
3 nM | 81 nM | 35% | 44.4 min | 26.2 mL/min/kg | 3.26 | C=C[C@@H]1C[C@]1(NC(=O)[C@@H]1C[C@@H](Oc2cc(-c3nc(C(C)C)cs3)nc3c(Cl)c(OCCN4CCOCC4)ccc23)[C@H]2CC[C@H](C(C)C)C(=O)N21)C(=O)NS(=O)(=O)C1CC1
1 nM | 144 nM |  |  |  |  | C=C[C@@H]1C[C@]1(NC(=O)[C@@H]1C[C@@H](Oc2cc(-c3cccc(C(C)C)n3)nc3c(Cl)c(OCCOC)ccc23)[C@H]2CC[C@H](C(C)C)C(=O)N21)C(=O)NS(=O)(=O)C1CC1
32 nM |  |  |  |  |  | C=C[C@@H]1C[C@]1(NC(=O)[C@@H]1C[C@@H](Oc2cc(-c3nc(C(C)C)cs3)nc3c(Cl)c(OC)ccc23)[C@H]2CCCC(=O)N21)C(=O)NS(=O)(=O)C1CC1
